Activity calls are given as the source filed them. The rule behind the calls is not given here.
Tested on: CCRIS mutagenicity, Ames/micronucleus/aberration tests
Test: CCRIS mutagenicity studies
[1] = Test System: AMES SALMONELLA TYPHIMURIUM, Strain/Indicator: TA100, Metabolic Activation: NONE, Method: STANDARD PLATE
[2] = Test System: AMES SALMONELLA TYPHIMURIUM, Strain/Indicator: TA100, Metabolic Activation: RAT, LIVER, S-9, AROCLOR 1254, Method: STANDARD PLATE
[3] = Test System: AMES SALMONELLA TYPHIMURIUM, Strain/Indicator: TA98, Metabolic Activation: NONE, Method: PREINCUBATION
[4] = Test System: AMES SALMONELLA TYPHIMURIUM, Strain/Indicator: TA100, Metabolic Activation: NONE, Method: PREINCUBATION

Measured: mutagenic call

CC(=O)Nc1ccc(S(=O)(=O)O)c2cc(S(=O)(=O)O)c(N=Nc3ccc(N=Nc4ccc(S(=O)(=O)O)cc4)c4ccc(S(=O)(=O)O)cc34)c(O)c12
active: Test System: MOUSE LYMPHOMA, Strain/Indicator: L5178Y (TK+/TK-), Metabolic Activation: RAT, LIVER, S-9, AROCLOR 1254, Method: SUSPENSION/PLATE active; positive. reevaluation of results: equivocal
inactive: Test System: AMES SALMONELLA TYPHIMURIUM, Strain/Indicator: TA98, Metabolic Activation: HAMSTER, LIVER, S-9, AROCLOR 1254, Method: STANDARD PLATE inactive; negative | Test System: AMES SALMONELLA TYPHIMURIUM, Strain/Indicator: TA98, Metabolic Activation: NONE, Method: STANDARD PLATE inactive; negative | Test System: AMES SALMONELLA TYPHIMURIUM, Strain/Indicator: TA98, Metabolic Activation: RAT, LIVER, S-9, AROCLOR 1254, Method: STANDARD PLATE inactive; negative | Test System: AMES SALMONELLA TYPHIMURIUM, Strain/Indicator: TA100, Metabolic Activation: HAMSTER, LIVER, S-9, AROCLOR 1254, Method: STANDARD PLATE inactive; negative | [1] inactive; negative | [2] inactive; negative | Test System: AMES SALMONELLA TYPHIMURIUM, Strain/Indicator: TA1535, Metabolic Activation: HAMSTER, LIVER, S-9, AROCLOR 1254, Method: STANDARD PLATE inactive; negative | Test System: AMES SALMONELLA TYPHIMURIUM, Strain/Indicator: TA1535, Metabolic Activation: NONE, Method: STANDARD PLATE inactive; negative | Test System: AMES SALMONELLA TYPHIMURIUM, Strain/Indicator: TA1535, Metabolic Activation: RAT, LIVER, S-9, AROCLOR 1254, Method: STANDARD PLATE inactive; negative | Test System: AMES SALMONELLA TYPHIMURIUM, Strain/Indicator: TA1537, Metabolic Activation: HAMSTER, LIVER, S-9, AROCLOR 1254, Method: STANDARD PLATE inactive; negative | Test System: AMES SALMONELLA TYPHIMURIUM, Strain/Indicator: TA1537, Metabolic Activation: NONE, Method: STANDARD PLATE inactive; negative | Test System: AMES SALMONELLA TYPHIMURIUM, Strain/Indicator: TA1537, Metabolic Activation: RAT, LIVER, S-9, AROCLOR 1254, Method: STANDARD PLATE inactive; negative | Test System: MOUSE LYMPHOMA, Strain/Indicator: L5178Y (TK+/TK-), Metabolic Activation: NONE, Method: SUSPENSION/PLATE inactive; negative. reevaluation of results: negative

O=C1CCCCCCCCCCCC(=O)OCCO1
inactive: [3] inactive; negative | Test System: AMES SALMONELLA TYPHIMURIUM, Strain/Indicator: TA98, Metabolic Activation: RAT, LIVER, S-9, SODIUM PHENOBARBITAL AND 5,6-BENZOFLAVONE, Method: PREINCUBATION inactive; negative | [4] inactive; negative | Test System: AMES SALMONELLA TYPHIMURIUM, Strain/Indicator: TA100, Metabolic Activation: RAT, LIVER, S-9, SODIUM PHENOBARBITAL AND 5,6-BENZOFLAVONE, Method: PREINCUBATION inactive; negative | Test System: AMES SALMONELLA TYPHIMURIUM, Strain/Indicator: TA102, Metabolic Activation: NONE, Method: PREINCUBATION inactive; negative | Test System: AMES SALMONELLA TYPHIMURIUM, Strain/Indicator: TA102, Metabolic Activation: RAT, LIVER, S-9, SODIUM PHENOBARBITAL AND 5,6-BENZOFLAVONE, Method: PREINCUBATION inactive; negative | Test System: AMES SALMONELLA TYPHIMURIUM, Strain/Indicator: TA104, Metabolic Activation: NONE, Method: PREINCUBATION inactive; negative | Test System: AMES SALMONELLA TYPHIMURIUM, Strain/Indicator: TA104, Metabolic Activation: RAT, LIVER, S-9, SODIUM PHENOBARBITAL AND 5,6-BENZOFLAVONE, Method: PREINCUBATION inactive; negative | Test System: AMES SALMONELLA TYPHIMURIUM, Strain/Indicator: TA1535, Metabolic Activation: NONE, Method: PREINCUBATION inactive; negative | Test System: AMES SALMONELLA TYPHIMURIUM, Strain/Indicator: TA1535, Metabolic Activation: RAT, LIVER, S-9, SODIUM PHENOBARBITAL AND 5,6-BENZOFLAVONE, Method: PREINCUBATION inactive; negative | Test System: AMES SALMONELLA TYPHIMURIUM, Strain/Indicator: TA1537, Metabolic Activation: NONE, Method: PREINCUBATION inactive; negative | Test System: AMES SALMONELLA TYPHIMURIUM, Strain/Indicator: TA1537, Metabolic Activation: RAT, LIVER, S-9, SODIUM PHENOBARBITAL AND 5,6-BENZOFLAVONE, Method: PREINCUBATION inactive; negative | Test System: E. COLI, Strain/Indicator: WP2UVRA/PKM101, Metabolic Activation: NONE, Method: PREINCUBATION inactive; negative | Test System: E. COLI, Strain/Indicator: WP2UVRA/PKM101, Metabolic Activation: RAT, LIVER, S-9, SODIUM PHENOBARBITAL AND 5,6-BENZOFLAVONE, Method: PREINCUBATION inactive; negative | Test System: E. COLI, Strain/Indicator: WP2UVRA, Metabolic Activation: NONE, Method: PREINCUBATION inactive; negative | Test System: E. COLI, Strain/Indicator: WP2UVRA, Metabolic Activation: RAT, LIVER, S-9, SODIUM PHENOBARBITAL AND 5,6-BENZOFLAVONE, Method: PREINCUBATION inactive; negative

Cc1ccc([N+](=O)[O-])cc1N=O
inactive: Test System: AMES SALMONELLA TYPHIMURIUM, Strain/Indicator: TA98, Metabolic Activation: NONE, Method: SUSPENSION/PLATE inactive; negative | Test System: AMES SALMONELLA TYPHIMURIUM, Strain/Indicator: TA98, Metabolic Activation: RAT, LIVER, S-9, PHENOBARBITAL AND 5,6-BENZOFLAVONE, Method: SUSPENSION/PLATE inactive; negative | Test System: AMES SALMONELLA TYPHIMURIUM, Strain/Indicator: TA100, Metabolic Activation: NONE, Method: SUSPENSION/PLATE inactive; negative | Test System: AMES SALMONELLA TYPHIMURIUM, Strain/Indicator: TA100, Metabolic Activation: RAT, LIVER, S-9, PHENOBARBITAL AND 5,6-BENZOFLAVONE, Method: SUSPENSION/PLATE inactive; negative
active: [3] active; positive | Test System: AMES SALMONELLA TYPHIMURIUM, Strain/Indicator: TA98, Metabolic Activation: RAT, LIVER, S-9, AROCLOR, Method: PREINCUBATION active; positive

CC(=O)N[C@@H](C(=O)N(CC(=O)O)N=O)C(C)C
active: [1] active; positive | [2] active; positive | Test System: CHO/HGPRT, Strain/Indicator: CHO-K1-BH4, Metabolic Activation: NONE active; positive

CCN(CC)CCCNC(=O)C(=O)N/N=C/c1ccc([N+](=O)[O-])o1
active: Test System: E. COLI, Strain/Indicator: WP2 UVRA, Metabolic Activation: NONE, Method: STANDARD PLATE active; positive

Cc1cc2nc3c(=O)[nH]c(=O)nc-3n(C)c2cc1C
active: Test System: AMES SALMONELLA TYPHIMURIUM, Strain/Indicator: TA97A, Metabolic Activation: RAT, CECAL CELL-FREE EXTRACT, Method: PREINCUBATION active; positive | Test System: AMES SALMONELLA TYPHIMURIUM, Strain/Indicator: TA97A, Metabolic Activation: RAT, LIVER, S9, AROCLOR 1254, Method: PREINCUBATION active; positive | Test System: AMES SALMONELLA TYPHIMURIUM, Strain/Indicator: TA98, Metabolic Activation: RAT, LIVER, S9, AROCLOR 1254, Method: PREINCUBATION active; positive
inactive: Test System: AMES SALMONELLA TYPHIMURIUM, Strain/Indicator: TA97A, Metabolic Activation: NONE, Method: PREINCUBATION inactive; negative | [3] inactive; negative | Test System: AMES SALMONELLA TYPHIMURIUM, Strain/Indicator: TA98, Metabolic Activation: RAT, CECAL CELL-FREE EXTRACT, Method: PREINCUBATION inactive; negative | [4] inactive; negative | Test System: AMES SALMONELLA TYPHIMURIUM, Strain/Indicator: TA100, Metabolic Activation: RAT, CECAL CELL-FREE EXTRACT, Method: PREINCUBATION inactive; negative | Test System: AMES SALMONELLA TYPHIMURIUM, Strain/Indicator: TA100, Metabolic Activation: RAT, LIVER, S9, AROCLOR 1254, Method: PREINCUBATION inactive; negative

Reference: PubChem BioAssay AID1259407 (Chemical Carcinogenesis Research Information System (CCRIS), 2018)
